Results: patent US6667312B2, “Thioether substituted imidazoquinolines” (3M Innovative Properties Company, priority 2000, dated 2003)
Where a name gives a salt, the structure may show the parent alone.

Key:
[1] = tested on: tumor necrosis factor (α); experiment: Cytokine Induction in Human Cells: tumor necrosis factor; type: cell-based; settings: human PBMC, 18 to 24 hours, tested 30-0.014 μM, TNF by ELISA or IGEN assay; read-out: Lowest Effective Concentration (μM) Tumor Necrosis Factor
Source text: (§1) An in vitro human blood cell system is used to assess cytokine induction. Activity is based on the measurement of interferon and tumor necrosis factor (α) (IFN and TNF, respectively) secreted into culture media as described by Testerman et. al. In “Cytokine Induction by the Immunomodulators Imiquimod and S-27609”, Journal of Leukocyte Biology, 58, 365-372 (September, 1995).
(§2) Whole blood from healthy human donors is collected by venipuncture into EDTA vacutainer tubes. Peripheral blood mononuclear cells (PBMC) are separated from whole blood by density gradient centrifugation using Histopaque®-1077. Blood is diluted 1:1 with Dulbecco's Phosphate Buffered Saline (DPBS) or Hank's Balanced Salts Solution (HBSS). The PBMC layer is collected and washed twice with DPBS or HBSS and resuspended at 4×10^6 cells/mL in RPMI complete. The PBMC suspension is added to 48 well flat bottom sterile tissue culture plates (Costar, Cambridge, Mass. or Becton Dickinson Labware, Lincoln Park, N.J.) containing an equal volume of RPMI complete media containing test compound.
(§3) The compounds are solubilized in dimethyl sulfoxide (DMSO). The DMSO concentration should not exceed a final concentration of 1% for addition to the culture wells. The compounds are generally tested at concentrations ranging from 30-0.014 μM.
(§4) The solution of test compound is added at 60 μM to the first well containing RPMI complete and serial 3 fold dilutions are made in the wells. The PBMC suspension is then added to the wells in an equal volume, bringing the test compound concentrations to the desired range (30-0.014 μM). The final concentration of PBMC suspension is 2×10^6 cells/mL. The plates are covered with sterile plastic lids, mixed gently and then incubated for 18 to 24 hours at 37° C. in a 5% carbon dioxide atmosphere.
(§5) Following incubation the plates are centrifuged for 10 minutes at 1000 rpm (˜200× g) at 4° C. The cell-free culture supernatant is removed with a sterile polypropylene pipet and transferred to sterile polypropylene tubes. Samples are maintained at −30 to −70° C. until analysis. The samples are analyzed for interferon (α) by ELISA and for tumor necrosis factor (α) by ELISA or IGEN Assay
Tumor necrosis factor (α) (TNF) concentration is determined using ELISA kits available from Biosource International, Camarillo, Calif. Alternately, the TNF concentration can be determined by Origen® M-Series Immunoassay and read on an IGEN M-8 analyzer from IGEN International, Gaithersburg, Md. The immunoassay uses a human TNF capture and detection antibody pair from Biosource International, Camarillo, Calif. Results are expressed in pg/mL.
(§6) The table below lists the lowest concentration found to induce interferon and the lowest concentration found to induce tumor necrosis factor for each compound.

interferon (α) = experiment: Cytokine Induction in Human Cells: interferon; type: cell-based; settings: human PBMC, 18 to 24 hours, tested 30-0.014 μM, interferon (α) by ELISA; read-out: Lowest Effective Concentration (μM) Interferon
Source text: as §1, §2, §3, §4, §5
Interferon (α) concentration is determined by ELISA using a Human Multi-Species kit from PBL Biomedical Laboratories, New Brunswick, N.J. Results are expressed in pg/mL.
as §6

melting point [°C] | SMILES | minimal effective concentration [1] [µM] | minimal effective concentration (interferon (α)) [µM]
 | CCCCc1nc2c(N)nc3ccccc3c2n1CCSCCC [Example 61] | 0.12 | 0.04
 | CCCCc1nc2c(N)nc3ccccc3c2n1CCCCCS(C)(=O)=O [Example 11, 2-butyl-1-[5-(methylsulfonyl)pentyl]-1H-imidazo[4,5-c]quinolin-4-amine] | 0.12 | 0.01
170 to 171 | CCOCc1nc2c(N)nc3c(c2n1CCCCS(C)(=O)=O)CCCC3 [Example 79, 2-ethoxymethyl-1-(4-methanesulfonyl-butyl)-6,7,8,9-tetrahydro-1H-imidazo[4,5-c]quinolin-4-amine] |  | 
 | CCc1nc2c(N)nc3ccccc3c2n1CCCCS(=O)(=O)CC [Example 54] | 1.11 | 0.37
 | CCc1nc2c(N)nc3ccccc3c2n1CCCCS(=O)(=O)c1cc(Cl)cc(Cl)c1 [Example 46] | 0.37 | 0.12
 | CCc1nc2c(N)nc3ccccc3c2n1CCCCCS(C)(=O)=O [Example 13, 2-ethyl-1-[5-(methylsulfonyl)pentyl]-1H-imidazo[4,5-c]quinolin-4-amine] | 3.33 | 0.12
 | CCCCc1nc2c(N)nc3ccccc3c2n1CCS(=O)(=O)c1ccccc1 [Example 57] | 1.11 | 1.11
 | CCCCc1nc2c(N)nc3ccccc3c2n1CCSC(C)(C)C [Example 59] | 0.04 | 0.01
 | CCCc1nc2c(N)nc3ccccc3c2n1CCCCS(C)(=O)=O [Example 30, 1-[4-(methylsulfonyl)butyl]-2-propyl-1H-imidazo[4,5-c]quinolin-4-amine] | 3.33 | 0.37
 | CCCCc1nc2c(N)nc3ccccc3c2n1CCS(=O)(=O)CC [Example 66] | 0.12 | 0.12
 | CCCCc1nc2c(N)nc3ccccc3c2n1CCSCC [Example 65] | 0.04 | 0.01
 | CCCCc1nc2c(N)nc3c(c2n1CCSc1ccccc1)CCCC3 [Example 2, 2-butyl-1-[2-(phenylthio)ethyl]-6,7,8,9-tetrahydro-1H-imidazo[4,5-c]quinolin-4-amine Hydrochloride] | 0.37 | 0.12
 | CCCCc1nc2c(N)nc3ccccc3c2n1CCSCC(C)C [Example 63] | 0.04 | 0.04
172 to 174 | Cc1nc2c(N)nc3c(c2n1CCCCCS(C)(=O)=O)CCCC3 [Example 75, 2-methyl-1-[5-(methylsulfonyl)pentyl]-6,7,8,9-tetrahydro-1H-imidazo[4,5-c]quinolin-4-amine] |  | 
208 to 210 | Cc1nc2c(N)nc3c(c2n1CCCCS(=O)(=O)C(C)(C)C)CCCC3 [Example 78, 2-methyl-1-{4-[(1,1-dimethylethyl)sulfonyl]butyl}-6,7,8,9-tetrahydro-1H-imidazo[4,5-c]quinolin-4-amine] |  | 
 | CCCCc1nc2c(N)nc3ccccc3c2n1CCCCS(=O)(=O)CC [Example 39] | 0.04 | 0.04
 | CCc1nc2c(N)nc3ccccc3c2n1CCCCS(=O)(=O)C1CCCCC1 [Example 55] | 1.11 | 0.12
 | CCCCc1nc2c(N)nc3ccccc3c2n1CCCCSc1ccc(F)cc1 [Example 41] | 0.37 | 0.37
182 to 185 | CCc1nc2c(N)nc3ccccc3c2n1CCCCSc1ncccn1 [Example 72, 2-ethyl-1-[4-(pyrimidin-2-ylthio)butyl]-1H-imidazo[4,5-c]quinolin-4-amine] |  | 
 | CCc1nc2c(N)nc3ccccc3c2n1CCCCSc1ccc(Cl)cc1 [Example 49] | 1.11 | 0.37

melting point [°C] | SMILES | minimal effective concentration [1] [µM] | minimal effective concentration (interferon (α)) [µM]
237 to 238 | CCCCc1nc2c(N)nc3c(c2n1CCSc1ccccc1)CCCC3 (as salt: hydrochloride) [Example 2, 2-butyl-1-[2-(phenylthio)ethyl]-6,7,8,9-tetrahydro-1H-imidazo[4,5-c]quinolin-4-amine Hydrochloride] |  | 
 | CCCCc1nc2c(N)nc3ccccc3c2n1CCS(=O)(=O)C(C)(C)C [Example 60] | 0.37 | 0.37
 | CCCCc1nc2c(N)nc3ccccc3c2n1CCS(=O)(=O)CCC [Example 62] | 0.37 | 0.12
 | CCCCc1nc2c(N)nc3ccccc3c2n1CCS(=O)(=O)C(C)C [Example 56] | 0.37 | 0.37
 | CCSCCCCn1c(CC)nc2c(N)nc3ccccc3c21 [Example 53] | 0.37 | 0.04
 | CCc1nc2c(N)nc3ccccc3c2n1CCCCS(=O)(=O)C1CCCC1 [Example 45] | 1.11 | 0.37
 | CCc1nc2c(N)nc3ccccc3c2n1CCCCSC(C)C [Example 43] | 0.37 | 0.014
 | CCCCc1nc2c(N)nc3ccccc3c2n1CCS(=O)(=O)CC(C)C [Example 64] | 0.12 | 0.12
 | CCCCc1nc2c(N)nc3ccccc3c2n1CCCCS(=O)(=O)c1ccc(F)cc1 [Example 42] | 0.12 | 0.12
 | CCCCc1nc2c(N)nc3ccccc3c2n1CCS(=O)(=O)c1ccc(F)cc1 [Example 58] | 1.11 | 1.11
213 to 216 | Cc1nc2c(N)nc3c(c2n1CCCCS(C)(=O)=O)CCCC3 [Example 74, 2-methyl-1-[4-(methylsulfonyl)butyl]-6,7,8,9-tetrahydro-1H-imidazo[4,5-c]quinolin-4-amine] |  | 
159 to 162 | Cc1nc2c(N)nc3c(c2n1CCCCS(=O)(=O)c1ccc(F)cc1)CCCC3 [Example 77, 2-methyl-1-{4-[(4-fluorophenyl)sulfonyl]butyl}-6,7,8,9-tetrahydro-1H-imidazo[4,5-c]quinolin-4-amine] |  | 
 | CCc1nc2c(N)nc3ccccc3c2n1CCCCS(=O)(=O)C(C)C [Example 52] | 1.11 | 0.37
 | CCCCS(=O)(=O)CCCCn1c(CC)nc2c(N)nc3ccccc3c21 [Example 50] | 1.11 | 0.37
 | CCCCSCCCCn1c(CC)nc2c(N)nc3ccccc3c21 [Example 48] | 0.12 | 0.014
 | CCc1nc2c(N)nc3ccccc3c2n1CCCCSc1ccc(F)cc1 [Example 51] | 1.11 | 0.12
 | CCc1nc2c(N)nc3ccccc3c2n1CCCCSc1cc(Cl)cc(Cl)c1 [Example 44] | 10 | 1.11
 | CCCCc1nc2c(N)nc3ccccc3c2n1CCCCSC(C)(C)C [Example 40] | 0.01 | 0.01
177 to 178 | Cc1nc2c(N)nc3c(c2n1CCCCS(=O)(=O)C(C)C)CCCC3 [Example 76, 2-methyl-1-{4-[(1-methylethyl)sulfonyl]butyl}-6,7,8,9-tetrahydro-1H-imidazo[4,5-c]quinolin-4-amine] |  | 
 | CCc1nc2c(N)nc3ccccc3c2n1CCCCSC1CCCCC1 [Example 47] | 3.33 | 0.37
